US9611223B2, “3-aryl-5-substituted-isoquinolin-1-one compounds and their therapeutic use” (INSTITUTE OF CANCER RESEARCH: ROYAL CANCER HOSPITAL (THE), priority 2013, dated 2017)
Where two headings read alike, the source gives them in different places.

Experiments:
TNKS1 = molecular target: T1, TNKS1 (Homo sapiens, UniProt O95271, M1266I); experiment: TNKS1/PARP Biochemical Assay
T1 construct: expresses the active PARP domain of TNKS1 as a polyhistidine tagged protein; made in house; host or cells: E. coli Rosetta2(DE3)
T1 sequence (O95271 1112-1317 M1266I): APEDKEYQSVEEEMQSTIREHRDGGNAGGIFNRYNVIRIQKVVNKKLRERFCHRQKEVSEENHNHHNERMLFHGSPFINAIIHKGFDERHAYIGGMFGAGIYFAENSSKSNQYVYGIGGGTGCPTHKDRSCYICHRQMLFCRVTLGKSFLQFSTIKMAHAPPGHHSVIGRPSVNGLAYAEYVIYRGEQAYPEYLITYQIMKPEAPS
Protocol: TNKS1/PARP Biochemical Assay
Tankyrase activity was assayed using a 96-well format HT Universal Chemiluminescent PARP Assay Kit (Trevigen, Inc, cat. no. 4676-096-K) according to the manufacturer's instructions. In short, tankyrase/PARP activity is quantified by the incorporation of biotinylated nicotinamide adenine dinucleotide (biotin-NAD^+) onto the immobilised pseudo substrate, Histone. The extent of poly(Biotin-ADP)ribosylation (PARylation) in the presence of increasing dose of inhibitor is then quantified by binding of streptavidin conjugated horse radish peroxidase (strep-HRP) followed by chemiluminescent detection.
Prior to assay initiation, inhibitor stocks were prepared in aqueous DMSO (10% (v/v)) from 5 millimolar (mM) stock in 100% DMSO (Sigma Aldrich, cat. no. 265855) as 10× concentrations. For the primary assay (i.e., single dose at 1 micromolar (μM) final concentration) this corresponded to 10 μM in 10% DMSO. For IC50 determination, this corresponded to 100 μM, 30 μM, 10 μM, 3.0 μM, 1.0 μM, 0.30 μM, 0.10 μM and 0 μM in 10% DMSO for final concentrations of 10 μM, 3.0 μM, 1.0 μM, 0.30 μM, 0.10 μM, 0.030 μM, 0.010 μM, and 0 μM with 1% (v/v) final DMSO. The assay was initiated by the addition of 10× inhibitor (5 microliters (μL)) or 10% aqueous DMSO (5 μL) to triplicate wells. Twenty microliters of diluted TNKS1 protein (200 nanomolar (nM) final conc.) in PARP buffer (Trevigen, Inc, cat. no. 4671-096-02) was added to each histone coated well, which was previously hydrated with PARP buffer. Triplicate wells with 1% DMSO/buffer alone (no enzyme) were also added as a measure of assay ‘noise’. Positive control for PARP inhibition included the addition of 4-amino-1,8-naphthalimide (Sigma Aldrich, cat. no A0966) in corresponding doses.
The mixture was incubated for 10 minutes at room temperature and the PARylation reaction initiated by the addition of PARP cocktail (25 μL, Trevigen, Inc) containing biotin-NAD^+ (Trevigen, Inc, cat. no. 4670-500-01), activated DNA (Trevigen, Inc, cat. no. 4671-096-06) and PARP buffer. The reaction was incubated for 1.5 hours (for TNKS1) or 1 hour (for PARP1) at room temperature. The reaction mixture was then removed by aspiration and the wells washed (3×200 μL) with phosphate buffered saline containing Triton X-100 (0.1% (v/v), Sigma Aldrich cat. no. T8787). The wells were then washed (3×200 μL) with phosphate buffered saline and then incubated with strep-HRP (50 μL, Trevigen, Inc, cat. no. 4800-30-06) in strep-diluent (1:500 dilution, Trevigen Inc, cat. no. 4671-096-04) for 1 hour at room temperature. The Strep-HRP mixture was then aspirated and the wells washed (3×200 μL) with phosphate buffered saline containing Triton X-100 (0.1% (v/v)) followed by phosphate buffered saline (3×200 μL) and then incubated with PeroxyGlow™ reagent (100 μL, Trevigen, Inc, cat. nos. 4675-096-01, 4675-096-02, room temperature, mixed 1:1).
The amount of light emitted as a result of the peroxidase-chemiluminescent reagent reaction was in proportion to the extent of poly(Biotin-ADP)ribosylation and was immediately measured with a Victor^2 plate reader (Perkin Elmer, luminescence detection assay, luminescent units described as ‘Counts Per Second’ (CPS)). The data were normalised to the DMSO control after subtraction of ‘noise’ and was expressed as % PARP activity as a function of inhibitor dose. Inhibition was expressed as 100%−(% PARP activity). Dose response curves used to determine IC50 values were Log transformed and analysed by non-linear regression analysis (variable slope) using Prism (GraphPad Software, Inc) and were presented as IC50 with 95% confidence interval to determine relative potency.
Tankyrase1 (pNIC-Bsa4-TNKS1^PARP) expression construct was obtained from the Structural Genomics Consortium (SGC) and expresses the active PARP domain of TNKS1 as a polyhistidine tagged protein. […]

Wnt signalling = experiment: Wnt-Luciferase Reporter Assay; format: cell-based; settings: DLD1-Wnt-Luc cells, 20-22 hours
Protocol: Wnt-Luciferase Reporter Assay
A Wnt dependent cell line (i.e., DLD1 colorectal adenocarcinoma cell line) was transduced with replication incompetent VSV-g pseudotyped lentiviral particles expressing the firefly luciferase gene under the control of minimal cytomegalovirus (mCMV) promoter and tandem repeats of the TCF/LEF transcriptional response element.
DLD1-Wnt-Luc cells were seeded (5000 cells/well) in a 96-well plate (Greiner Bio-One, cat. no. 655098) in Dubelco's Modified Eagle Medium (DMEM, SFBCO/Invitrogen, cat no. 41965-039) supplemented with Fetal Bovine Serum (FBS, 10%, SFBCO/Invitrogen, cat no. 10108-165). After overnight incubation, the media was replaced with OptiMEM (SFBCO/Invitrogen, cat no. 11058-021) supplemented with FBS (0.5%) and non-essential amino acids (1%, SFBCO/Invitrogen, cat no. 11140-035) and the appropriate putative TNKS inhibitor at a final concentration of 10 μM, 3 μM, 1 μM, 0.30 μM, 0.10 μM, 0.030 μM, 0.010 μM and 0 μM with 1% (v/v) final DMSO in double-triplicate wells. Positive control includes the use of XAV-939 (Maybridge, FisherScientific, 3,5,7,8-tetrahydro-2-[4-(trifluoromethyl)phenyl]-4H-thiopyrano[4,3-d]pyrimidin-4-one, cat. no. RF03920, see: Huang et al., Nature, 2009, Vol. 461, pp. 614-620). Cells were incubated for 20-22 hours before assaying for luciferase (first set of triplicates: Wnt activation) and viability (second set of triplicates: cell survival for data normalisation vs Wnt-activation) using ONE-Glo (Promega, cat. no. E6110) and CellTiter-Glo (Promega, cat. no. G7570) reagents consecutively. The assay was measured using a Victor^2 plate reader. The data were normalised to the DMSO control and were expressed as % Wnt activity as a function of inhibitor dose. Dose response curves used to determine IC50 values were Log transformed and analysed by non-linear regression analysis (variable slope) using Prism (GraphPad Software, Inc).

COLO320DM cells = experiment: Tumour Cell Inhibition Assay (COLO320DM cells); format: cell-based; settings: Homo sapiens, COLO 320DM, 120 h, five day exposure, read-out: cell inhibitory SF50 (COLO320DM)
Protocol: (§1) Tumour Cell Inhibition in Colorectal Tumour Cells
(§2) In order to determine the efficacy of acute dosing of putative TNKS inhibitors, five day exposure cell viability assays were carried out. This included the sparse seeding of cells in a 96-well plate followed by continuous dosing of cells over a five day period.
(§3) Appropriate cell lines (HT55, COLO320DM and SW620) were seeded at 500 cells/well in a 96-well plate in MEM (HT55), RPMI (COLO320DM) or DMEM (SW620) supplemented with FBS. After overnight incubation, cells were treated with the appropriate putative TNKS inhibitor in 6 or 10 concentrations ranging from 0 μM to 10 μM at 0.2% final DMSO concentration in appropriate media supplemented with 10% or 0.5% FBS. Dosages were carried out in triplicate. Termination of the assay and measurement of cell viability was achieved by the use of Cell Titre Glo reagent and luminescence measurement on an appropriate plate reader.
(§4) Dose response curves used to determine SF50 values were Log transformed and analysed by non-linear regression analysis (variable slope) using Prism (GraphPad Software, Inc).

HT55 cells = experiment: Tumour Cell Inhibition Assay (HT55 cells); format: cell-based; settings: Homo sapiens, HT55, 120 h, read-out: cell inhibitory SF50 (HT55)
Protocol: as §1, §2, §3, §4

[1] = Tumour Cell Inhibition Assay, five day exposure

IC50 (TNKS1) [µM] | IC50 (Wnt signalling) [µM] | IC50 (COLO320DM cells) [µM] | IC50 (HT55 cells; [1]) [µM] | SMILES | IC50 (HT55 cells) [µM]
< 0.1 | < 0.3 | < 5 |  | N#Cc1cccc2c(=O)[nH]c(-c3ccc(Cn4nccn4)cc3)cc12 [IQ-027] | 
< 0.05 | < 0.3 | < 5 |  | COCCN1CCN(C(=O)c2ccc(-c3cc4c(C#N)cccc4c(=O)[nH]3)cc2)CC1 [IQ-035] | 
< 0.05 | < 0.3 |  |  | N#Cc1cccc2c(=O)[nH]c(-c3cnc(N4CCN(C(=O)C5CC5)CC4)nc3)cc12 [IQ-007, 3-[2-(4-Cyclopropanecarbonyl-piperazin-1-yl)-pyrimidin-5-yl]-1-oxo-1,2-dihydro-isoquinoline-5-carbonitrile] | 
< 0.05 |  | < 5 | < 5 | CN1CCCN(Cc2ccc(-c3cc4c(C#N)cccc4c(=O)[nH]3)cc2)CC1 [IQ-048] | 
< 0.05 | < 0.3 | < 5 |  | CN1CCC(N(C)C(=O)c2ccc(-c3cc4c(C#N)cccc4c(=O)[nH]3)cc2)CC1 [IQ-005] | 
< 0.05 |  |  | < 5 | N#Cc1cccc2c(=O)[nH]c(-c3ccc(C(=O)N4CCNCC4)cc3)cc12 [IQ-004, 1-Oxo-3-[4-(piperazine-1-carbonyl)-phenyl]-1,2-dihydro-isoquinoline-5-carbonitrile] | 
< 0.05 | < 0.3 | < 5 | < 5 | N#Cc1cccc2c(=O)[nH]c(-c3ccc(Cn4ccnc4N)cc3)cc12 [IQ-018] | 
< 0.05 | < 0.3 |  |  | N#Cc1cccc2c(=O)[nH]c(-c3ccc(Cn4cccn4)cc3)cc12 [IQ-021] | 
< 0.05 | < 0.3 | < 5 |  | Cc1nnc(NCc2ccc(-c3cc4c(C#N)cccc4c(=O)[nH]3)cc2)o1 [IQ-045, 3-{4-[5-Methyl-[1,3,4-oxadiazol-2-ylamino)methyl]phenyl}-1-oxo-1,2-dihydroisoquinoline-5-carbonitrile] | 
< 0.05 |  | < 5 | < 5 | N#Cc1cccc2c(=O)[nH]c(-c3ccc(Cn4ccnc4CO)cc3)cc12 [IQ-015, 3-[4-(2-Hydroxymethyl-imidazol-1-ylmethyl)-phenyl]-1-oxo-1,2-dihydro-isoquinoline-5-carbonitrile] | 
< 0.1 | < 0.3 | < 5 |  | N#Cc1cccc2c(=O)[nH]c(-c3ccc(N4CCNCC4)nc3)cc12 [IQ-052] | 
 | < 0.3 |  |  | N#Cc1cccc2c(=O)[nH]c(-c3ccc(CN4CCNCC4)cc3)cc12 [IQ-050, 1-Oxo-3-(4-piperazin-1-ylmethyl-phenyl)-1,2-dihydro-isoquinoline-5-carbonitrile] | 

SMILES | IC50 (TNKS1) [µM] | IC50 (Wnt signalling) [µM] | IC50 (COLO320DM cells) [µM] | IC50 (HT55 cells; [1]) [µM] | IC50 (HT55 cells) [µM]
Cc1nnc(C2CCN(Cc3ccc(-c4cc5c(C#N)cccc5c(=O)[nH]4)cc3)CC2)o1 [IQ-041] | < 0.05 | < 0.3 |  |  | < 5
CN1CCN(C(=O)Cc2ccc(-c3cc4c(C#N)cccc4c(=O)[nH]3)cc2)CC1 [IQ-037] | < 0.05 | < 0.3 | < 5 |  | 
CN1CCN(C(=O)Cc2ccc(-c3cc4c(C#N)cc(F)cc4c(=O)[nH]3)cc2)CC1 [IQ-036] | < 0.05 | < 0.3 | < 5 |  | 
N#Cc1cccc2c(=O)[nH]c(-c3ccc(N4CCNCC4)cc3)cc12 [IQ-054] | < 0.05 |  |  |  | < 5
N#Cc1cccc2c(=O)[nH]c(-c3ccc(CN4CC5CCC(C4)N5)cc3)cc12 [IQ-003] | < 0.1 | < 0.3 | < 5 |  | 
